Assay results from patent publication US12226412B2, “Heteroaryl-ketone fused azadecalin glucocorticoid receptor modulators” (Corcept Therapeutics, Inc., priority 2012, dated 2025).
Like-named read-outs stand apart in the source and are kept apart here.

Assays:
human recombinant GR = molecular target: T1, human recombinant GR (Homo sapiens, UniProt P04150); experiment: Human glucocorticoid receptor (GR) fluorescence polarisation (FP) binding assay
T1 construct: purchased PanVera P2812
T1 sequence (P04150 1-777): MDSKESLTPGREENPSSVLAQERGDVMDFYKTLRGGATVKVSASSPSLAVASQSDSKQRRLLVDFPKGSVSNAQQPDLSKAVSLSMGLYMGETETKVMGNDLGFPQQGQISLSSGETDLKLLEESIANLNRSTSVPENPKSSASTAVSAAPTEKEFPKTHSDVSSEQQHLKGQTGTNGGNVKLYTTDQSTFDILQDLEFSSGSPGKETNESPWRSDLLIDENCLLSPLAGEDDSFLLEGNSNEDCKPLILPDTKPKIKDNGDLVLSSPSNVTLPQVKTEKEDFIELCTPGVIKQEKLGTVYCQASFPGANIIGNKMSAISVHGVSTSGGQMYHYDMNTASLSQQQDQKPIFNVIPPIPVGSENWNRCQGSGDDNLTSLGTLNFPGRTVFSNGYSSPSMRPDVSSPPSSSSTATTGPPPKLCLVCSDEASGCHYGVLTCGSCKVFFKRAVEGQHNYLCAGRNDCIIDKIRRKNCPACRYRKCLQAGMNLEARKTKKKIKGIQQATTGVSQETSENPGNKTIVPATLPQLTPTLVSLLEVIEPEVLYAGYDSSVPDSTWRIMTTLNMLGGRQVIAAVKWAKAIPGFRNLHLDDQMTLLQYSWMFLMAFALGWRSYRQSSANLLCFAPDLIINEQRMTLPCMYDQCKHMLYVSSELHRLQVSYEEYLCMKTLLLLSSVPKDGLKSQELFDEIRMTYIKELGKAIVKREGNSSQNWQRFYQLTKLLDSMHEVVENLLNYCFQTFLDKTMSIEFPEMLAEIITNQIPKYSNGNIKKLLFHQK
How it was run: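 Competition fluorescence polarisation: 0.5 nM GS Red labelled glucocorticoid and 1 nM recombinant human GR with 8-point half-log compound series, 1% DMSO, 4 h room temperature, potassium phosphate pH 7.4 buffer with molybdate, EDTA, DTT. Affinity derived from the drop in polarisation, normalised to blank wells.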

[1] = test system: induction of TAT by dexamethasone in HepG2 cells; experiment: HepG2 tyrosine aminotransferase (TAT) assay; assay type: cell-based, human
[2] = human recombinant GR, fluorescence polarisation binding assay, read-out: GR binding
[3] = HepG2 cells, challenge of 100 nM dexamethasone, Ki from IC50 by Cheng and Prusoff equation

Ki (human recombinant GR; [2]) | Structure (SMILES) | Ki [1, 3] | Ki (human recombinant GR) | Ki [1]
< 0.5 nM | Cc1ccnc(C(=O)[C@]23Cc4cnn(-c5ccc(F)cc5)c4C=C2CCN(S(=O)(=O)c2ccn(C)n2)C3)c1 [Example 11AK, (R)-(1-(4-fluorophenyl)-6-((1-methyl-1H-pyrazol-3-yl)sulfonyl)-4,4a,5,6,7,8-hexahydro-1H-pyrazolo[3,4-g]isoquinolin-4a-yl)(4-methylpyridin-2-yl)methanone] | < 20 nM |  | 
< 0.5 nM | Cc1ccnc(C(=O)[C@]23Cc4cnn(-c5ccc(F)cc5)c4C=C2CCN(S(=O)(=O)c2ccc(F)c(C)c2)C3)c1 [Example 11AL, (R)-(6-((4-fluoro-3-methylphenyl)sulfonyl)-1-(4-fluorophenyl)-4,4a,5,6,7,8-hexahydro-1H-pyrazolo[3,4-g]isoquinolin-4a-yl)(4-methylpyridin-2-yl)methanone] | < 20 nM |  | 
< 0.5 nM | Cc1ccnc(C(=O)[C@]23Cc4cnn(-c5ccc(F)cc5)c4C=C2CCN(S(=O)(=O)c2cnc4c(c2)OCCN4C)C3)c1 [Example 11AM, (R)-(1-(4-fluorophenyl)-6-((4-methyl-3,4-dihydro-2H-pyrido[3,2-b][1,4]oxazin-7-yl)sulfonyl)-4,4a,5,6,7,8-hexahydro-1H-pyrazolo[3,4-g]isoquinolin-4a-yl)(4-methylpyridin-2-yl)methanone] | < 20 nM |  | 
< 0.5 nM | Cc1ccnc(C(=O)[C@]23Cc4cnn(-c5ccc(F)cc5)c4C=C2CCN(S(=O)(=O)c2ccc4c(c2)CCO4)C3)c1 [Example 11AN, (R)-(6-((2,3-dihydrobenzofuran-5-yl)sulfonyl)-1-(4-fluorophenyl)-4,4a,5,6,7,8-hexahydro-1H-pyrazolo[3,4-g]isoquinolin-4a-yl)(4-methylpyridin-2-yl)methanone] | < 20 nM |  | 
< 0.5 nM | Cc1ccnc(C(=O)[C@]23Cc4cnn(-c5ccc(F)cc5)c4C=C2CCN(S(=O)(=O)c2ccc4c(c2)CC(=O)N4C)C3)c1 [Example 11AO, (R)-5-((1-(4-fluorophenyl)-4a-(4-methylpicolinoyl)-4a,5,7,8-tetrahydro-1H-pyrazolo[3,4-g]isoquinolin-6 (4H)-yl)sulfonyl)-1-methylindolin-2-one] | < 20 nM |  | 
< 0.5 nM | Cc1ccnc(C(=O)[C@]23Cc4cnn(-c5ccc(F)cc5)c4C=C2CCN(S(=O)(=O)c2cccc(S(C)(=O)=O)c2)C3)c1 [Example 11AP, (R)-(1-(4-fluorophenyl)-6-((3-(methylsulfonyl)phenyl)sulfonyl)-4,4a,5,6,7,8-hexahydro-1H-pyrazolo[3,4-g]isoquinolin-4a-yl)(4-methylpyridin-2-yl)methanone] | < 20 nM |  | 
< 0.5 nM | Cc1ccnc(C(=O)[C@]23Cc4cnn(-c5ccc(F)cc5)c4C=C2CCN(S(=O)(=O)c2cn(C)nc2C)C3)c1 [Example 11AQ, (R)-(6-((1,3-dimethyl-1H-pyrazol-4-yl)sulfonyl)-1-(4-fluorophenyl)-4,4a,5,6,7,8-hexahydro-1H-pyrazolo[3,4-g]isoquinolin-4a-yl)(4-methylpyridin-2-yl)methanone] | 20 to 100 nM |  | 
< 0.5 nM | Cc1ccnc(C(=O)[C@]23Cc4cnn(-c5ccc(F)cc5)c4C=C2CCN(S(=O)(=O)c2ccc4c(c2)OCCO4)C3)c1 [Example 11AR, (R)-(6-((2,3-dihydrobenzo[b][1,4]dioxin-6-yl)sulfonyl)-1-(4-fluorophenyl)-4,4a,5,6,7,8-hexahydro-1H-pyrazolo[3,4-g]isoquinolin-4a-yl)(4-methylpyridin-2-yl)methanone] | < 20 nM |  | 
< 0.5 nM | Cc1ccnc(C(=O)[C@]23Cc4cnn(-c5ccc(F)cc5)c4C=C2CCN(S(=O)(=O)c2ccc(C(F)(F)F)c(F)c2)C3)c1 [Example 11AS, (R)-(6-((3-fluoro-4-(trifluoromethyl)phenyl)sulfonyl)-1-(4-fluorophenyl)-4,4a,5,6,7,8-hexahydro-1H-pyrazolo[3,4-g]isoquinolin-4a-yl)(4-methylpyridin-2-yl)methanone] | < 20 nM |  | 
 | O=C(c1ccccn1)[C@]12Cc3cnn(-c4ccc(F)cc4)c3C=C1CCN(S(=O)(=O)c1ccc(C(F)(F)F)c(F)c1)C2 [Example 11AT, (R)-(6-((3-fluoro-4-(trifluoromethyl)phenyl)sulfonyl)-1-(4-fluorophenyl)-4,4a,5,6,7,8-hexahydro-1H-pyrazolo[3,4-g]isoquinolin-4a-yl)(pyridin-2-yl)methanone] |  | < 0.5 nM | < 20 nM
< 0.5 nM | CCc1ccnc(C(=O)[C@]23Cc4cnn(-c5ccc(F)cc5)c4C=C2CCN(S(=O)(=O)c2cccc(C#N)c2)C3)c1 [Example 11AU, (R)-3-((4a-(4-ethylpicolinoyl)-1-(4-fluorophenyl)-4a,5,7,8-tetrahydro-1H-pyrazolo [3,4-g]isoquinolin-6 (4H)-yl)sulfonyl)benzonitrile] | < 20 nM |  | 
< 0.5 nM | CCc1ccnc(C(=O)[C@]23Cc4cnn(-c5ccc(F)cc5)c4C=C2CCN(S(=O)(=O)c2cccc(C(F)(F)F)n2)C3)c1 [Example 11AV, (R)-(4-ethylpyridin-2-yl) (1-(4-fluorophenyl)-6-((6-(trifluoromethyl)pyridin-2-yl)sulfonyl)-4,4a,5,6,7,8-hexahydro-1H-pyrazolo [3,4-g]isoquinolin-4a-yl)methanone] | < 20 nM |  | 
< 0.5 nM | Cc1ccnc(C(=O)[C@]23Cc4cnn(-c5ccc(F)cc5)c4C=C2CCN(S(=O)(=O)c2cccc(C(=O)O)c2)C3)c1 [Example 11AW, (R)-3-((1-(4-fluorophenyl)-4a-(4-methylpicolinoyl)-4a,5,7,8-tetrahydro-1H-pyrazolo[3,4-g]isoquinolin-6 (4H)-yl)sulfonyl)benzoic acid] | ≥ 100 nM |  | 
< 0.5 nM | Cc1ccnc(C(=O)[C@]23Cc4cnn(-c5ccc(F)cc5)c4C=C2CCN(S(=O)(=O)c2c(C)noc2C)C3)c1 [Example 11AX, (R)-(6-((3,5-dimethylisoxazol-4-yl)sulfonyl)-1-(4-fluorophenyl)-4,4a,5,6,7,8-hexahydro-1H-pyrazolo[3,4-g]isoquinolin-4a-yl)(4-methylpyridin-2-yl)methanone] | 20 to 100 nM |  | 
< 0.5 nM | CCn1cc(S(=O)(=O)N2CCC3=Cc4c(cnn4-c4ccc(F)cc4)C[C@]3(C(=O)c3ccccn3)C2)cn1 [Example 11AY, (R)-(6-((1-ethyl-1H-pyrazol-4-yl)sulfonyl)-1-(4-fluorophenyl)-4,4a,5,6,7,8-hexahydro-1H-pyrazolo[3,4-g]isoquinolin-4a-yl)(pyridin-2-yl)methanone] | 20 to 100 nM |  | 
< 0.5 nM | O=C(c1ccccn1)[C@]12Cc3cnn(-c4ccccc4)c3C=C1CCN(S(=O)(=O)c1cccc(C(F)(F)F)c1)C2 [Example 11AZ, (R)-(1-phenyl-6-((3-(trifluoromethyl)phenyl)sulfonyl)-4,4a,5,6,7,8-hexahydro-1H-pyrazolo[3,4-g]isoquinolin-4a-yl)(pyridin-2-yl)methanone] | 20 to 100 nM |  | 
< 0.5 nM | COc1ccc(S(=O)(=O)N2CCC3=Cc4c(cnn4-c4ccc(F)cc4)C[C@]3(C(=O)c3ccccn3)C2)cc1C [Example 11B, (R)-(1-(4-fluorophenyl)-6-((4-methoxy-3-methylphenyl)sulfonyl)-4,4a,5,6,7,8-hexahydro-1H-pyrazolo[3,4-g]isoquinolin-4a-yl)(pyridin-2-yl)methanone] | < 20 nM |  | 
< 0.5 nM | Cc1ccnc(C(=O)[C@]23Cc4cnn(-c5ccc(F)cc5)c4C=C2CCN(S(=O)(=O)c2cc(C)nn2C)C3)c1 [Example 11BA, (R)-(6-((1,3-dimethyl-1H-pyrazol-5-yl)sulfonyl)-1-(4-fluorophenyl)-4,4a,5,6,7,8-hexahydro-1H-pyrazolo[3,4-g]isoquinolin-4a-yl)(4-methylpyridin-2-yl)methanone] | < 20 nM |  | 
< 0.5 nM | Cc1ccnc(C(=O)[C@]23Cc4cnn(-c5ccc(F)cc5)c4C=C2CCN(S(=O)(=O)c2ccnc(C(F)(F)F)c2)C3)c1 [Example 11BB, (R)-(1-(4-fluorophenyl)-6-((2-(trifluoromethyl)pyridin-4-yl)sulfonyl)-4,4a,5,6,7,8-hexahydro-1H-pyrazolo[3,4-g]isoquinolin-4a-yl)(4-methylpyridin-2-yl)methanone] | < 20 nM |  | 
< 0.5 nM | Cc1ccnc(C(=O)[C@]23Cc4cnn(-c5ccc(F)cc5)c4C=C2CCN(S(=O)(=O)c2cc(C(F)(F)F)ccn2)C3)c1 [Example 11BC, (R)-(1-(4-fluorophenyl)-6-((4-(trifluoromethyl)pyridin-2-yl)sulfonyl)-4,4a,5,6,7,8-hexahydro-1H-pyrazolo[3,4-g]isoquinolin-4a-yl)(4-methylpyridin-2-yl)methanone] | < 20 nM |  | 
